Assay results as given in paper PMC4520562 (PLoS ONE, 2015).
Like-named read-outs stand apart in the source and are kept apart here.

Legend:
[1] = target: GD H6 HA (Influenza A virus (A/chicken/Guangdong/S1311/2010(H6N6)), UniProt A0A067YZV9); details: 2 h, pH 8.0, receptor-binding site
[2] = target: A/Taiwan/2/2013(H6N1) hemagglutinin ectodomain, trypsin-cleaved into HA1 and HA2 (influenza A virus A/Taiwan/2/2013(H6N1)); assay: crystal structure
[3] = target: A/chicken/Guangdong/S1311/2010(H6N6) hemagglutinin ectodomain, trypsin-cleaved into HA1 and HA2 (influenza A virus A/chicken/Guangdong/S1311/2010(H6N6)); assay: crystal structure

## CC(=O)N[C@H]1[C@H](O[C@H]2[C@@H](O)[C@@H](CO)O[C@@H](O[C@H]3[C@H](O)[C@@H](O)C(O)O[C@@H]3CO)[C@@H]2O)O[C@H](CO)[C@@H](O)[C@@H]1O[C@@H]1O[C@H](CO)[C@H](O)[C@H](O[C@]2(C(=O)O)C[C@H](O)[C@@H](NC(C)=O)[C@H]([C@H](O)[C@H](O)CO)O2)[C@H]1O (stereo partly shown) [LSTa]
[1]; crystal soaked with 5 mM LSTa, first three sugars visible
  X-ray crystal structure of complex: Gal-2 and GlcNAc-3 of the LSTa are clearly visualized in both GD and TW H6 HA

## CC(=O)N[C@H]1[C@H](O[C@H]2[C@@H](O)[C@@H](CO)O[C@@H](O[C@H]3[C@H](O)[C@@H](O)C(O)O[C@@H]3CO)[C@@H]2O)O[C@H](CO)[C@@H](O[C@@H]2O[C@H](CO[C@]3(C(=O)O)C[C@H](O)[C@@H](NC(C)=O)[C@H]([C@H](O)[C@H](O)CO)O3)[C@H](O)[C@H](O)[C@H]2O)[C@@H]1O (stereo partly shown) [LSTc]
[1]; crystal soaked with 5 mM LSTc, first two sugars visible
  X-ray crystal structure of complex: only the first two sugar rings are clearly visible in the complex structure of GD H6 HA-LSTc

## A/Taiwan/2/2013(H6N1) hemagglutinin ectodomain, trypsin-cleaved into HA1 and HA2 (domain or fragment)
[2]
  stoichiometry N: 3

## A/chicken/Guangdong/S1311/2010(H6N6) hemagglutinin ectodomain, trypsin-cleaved into HA1 and HA2 (domain or fragment)
[3]
  stoichiometry N: 3
